Columns and labels:
[1] = Effect of catalase addition on reagent containing cyclodextrin and colorant (Example 14); type: physicochemical; conditions: for 500 μM hydrogen peroxide / Blank: DA-67, 2% 2-hydroxypropyl-β-cyclodextrin, 500 U/ml catalase, 37° C.
Description: (§1) 500 μl of the R-1 reagent and 500 μl of the R-2 which had been incubated to 37° C. were mixed. The mixture was incubated to 37° C. for 2 minutes, and absorbance thereof (A0) was measured. The mixture was added with 10 μl of 500 μM hydrogen peroxide or distilled water. The whole was incubated to 37° C., and absorbance exactly 5 minutes after the addition of hydrogen peroxide (A1) was measured, to calculate a change in absorbance ΔA (A1-A0). The absorbance was measured using a wavelength of 750 nm when DA64 was used as the colorant, a wavelength of 660 nm when DA67 was used as the colorant, and a wavelength of 570 nm when 4-AA-TOOS was used as the colorant.
The same operation method as in Example 13 was used. Immediately after the preparation of the reagent, the reagent was preserved at 37° C. for 2 days and 9 days, and measurement of sensitivity of a blank which was distilled water and of hydrogen peroxide was performed.

[2] = system: Neutral protease (manufactured by Toyobo Co., Ltd.); test: Screening of protease reaction promoter (Example 1); type: biochemical; conditions: for protease reaction promoting effect (in words): judged from Table 1; for AH (absorbance from primary calibrator at level 4 (9.88%)) / AL (absorbance from primary calibrator at level 2 (5.38%)) / AH − AL: 660 nm
Description: 1) R-1: Reagent for Protein Decomposition
2) R-2: Reagent for Glycated Amino Acid Detection
The following substances were independently used as a test sample. Note that concentrations described in parentheses each represent a final concentration of the substance in the reagent R1.
Absorbance before the addition of the reagent R-2 and 5 minutes after the addition was measured at 660 nm. […] The AH-AL shown in Table 1 is a difference obtained by subtracting absorbance AL which was obtained from the primary calibrator at level 2 (5.38%) from absorbance AH which was obtained from the primary calibrator at level 4 (9.88%). Here, if AH-AL is large, the sample is judged to have a protease reaction promoting effect. In particular, when AH-AL is 20 or more, the sample has an excellent promoting effect.

hemoglobin = hemoglobin (Homo sapiens, UniProt P68871+P69905); test: Measurement of hemoglobin and stability of reagent (Example 9); type: physicochemical; conditions: Example 2 reagent with 1% promoter; 660 nm; FIG. 1
Sequence of hemoglobin (P69905 2-142 limits assumed): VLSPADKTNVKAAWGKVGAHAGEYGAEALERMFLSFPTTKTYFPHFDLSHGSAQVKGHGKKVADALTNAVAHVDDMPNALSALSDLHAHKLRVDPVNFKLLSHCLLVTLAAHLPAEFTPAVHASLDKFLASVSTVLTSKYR
Sequence of hemoglobin (P68871 2-147 limits assumed): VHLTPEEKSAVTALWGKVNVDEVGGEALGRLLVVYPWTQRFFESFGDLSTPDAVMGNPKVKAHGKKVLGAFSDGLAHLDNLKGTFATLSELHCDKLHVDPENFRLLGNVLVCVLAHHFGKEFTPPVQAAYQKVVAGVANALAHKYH
Description: By using the reagents of Example 2, measurement was performed for a standard product having a known hemoglobin concentration.
Measurement was performed by using an autoanalyzer (Hitachi autoanalyzer 7170S; manufactured by Hitachi Ltd.). 20 μl of a sample was added with 180 μl of each of the reagents, and changes in absorbance were measured at 660 nm. Water was used as a control, and differences in absorbance between the sample and the water were calculated after 5 minutes. 5-serially diluted products of the standard hemoglobin product were used as the sample.
In addition, a preservation test was performed for a reagent in which sarcosinate MN was used as a protease reaction promoter at 37° C. for 4 days. The measurement of 5.5 g/dl of the standard hemoglobin product was performed by using, as a calibrator, a 30-fold diluted product of a standard substance for HbA1c measurement (primary calibrator JDS HbA1c Lot2, manufactured by Health Care Technology Foundation, level 1, hemoglobin concentration of 135 g/L). As a result, the measurement values of the hemoglobin were 54 mAbs, 4.5 g/L before the preservation test and 50 mAbs, 4.6 g/L after the preservation test. From the results, it was assumed that the present reagent is stable for 6 months or longer under refrigeration.

protease = target: T1, protease (Bacillus licheniformis, UniProt P00780); test: Effect of protease reaction promoter on glycated albumin measurement (Example 12); type: biochemical
T1 construct: purchased Sigma Aldrich Japan K.K
T1 sequence (P00780 106-379): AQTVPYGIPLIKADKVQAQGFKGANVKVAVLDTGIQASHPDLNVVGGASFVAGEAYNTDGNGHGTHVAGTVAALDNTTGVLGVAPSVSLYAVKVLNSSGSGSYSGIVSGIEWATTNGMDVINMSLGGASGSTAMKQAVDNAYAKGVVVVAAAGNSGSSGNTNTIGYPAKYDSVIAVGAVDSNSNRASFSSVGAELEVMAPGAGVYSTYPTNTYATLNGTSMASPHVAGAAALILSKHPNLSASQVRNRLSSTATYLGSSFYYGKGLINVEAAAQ
Description: The reagents of Example 5 were used. 240 μl of the reagent R-1 which had been incubated to 37° C. was added with 8 μl of a control plasma H (manufactured by BML Inc.); […], and absorbance thereof was measured using a dominant wavelength of 546 nm and a subwavelength of 700 nm. A reaction was initiated at 37° C., and 80 μl of the R-2 reagent was added to the mixture exactly 5 minutes after the initiation. Absorbance before the addition of the R-2 reagent and after 5 minutes of the addition was measured. In addition, measurement was performed for a blank which was prepared by using distilled water instead of the substrate solution. The change in absorbance obtained from the control substrate solution was subtracted by the change in absorbance obtained from the blank sample, to thereby calculate ΔA0. Conversion of the values was performed by simultaneous measurement for a calibrator (manufactured by Asahi Kasei Pharma Corporation) for Lucica GA and comparison of absorbance. The measurement value for albumin was obtained from a difference in absorbance which was obtained by subtracting absorbance immediately before the addition of the R-2 reagent from absorbance immediately after the addition of the sample. […]

[3] = Screening of stabilizer for colorant, DA67 (Example 13); type: physicochemical; conditions: DA-67, 660 nm, 37° C., additives at conc. (1%; IDA 1 mM; Zn, Al 0.1 mM; ferrocyanide 0.01 mM; sorbitol 5%; DMSO 10%)
Description: (§2) The following substances were used as test samples. Note that concentrations described in parentheses each represent a final concentration of the substance in the reagent R-1.
(§3) Tween-20 (1%), Brij35 (1%), Triton X-100 (1%), deoxycholic acid (1%), imino-diacetic acid (IDA; 1 mM), ZnSO4 (0.1 mM), AlCl3 (0.1 mM), potassium ferrocyanate (0.01 mM), sorbitol (5%), glucose (5%), sodium nitrite (2 mM), dimethylsulfoxide (DMSO; 10%) (those substances are manufactured by Wako Pure Chemical Industries, Inc.), 2-hydroxypropyl-β-cyclodextrin (2HP β CD; 0.5%, 2%, 5%) and methyl-β-cyclodextrin (M β CD; 0.5%, 2%, 5%) (those substances are manufactured by Nihon Shokuhin Kako Co., Ltd.).
as §1
(§4) Immediately after the preparation of the reagent, the reagent was preserved at 37° C. for 2 days and 9 days, and measurement of sensitivity of a blank which was distilled water and of hydrogen peroxide was performed.

[4] = Screening of stabilizer for colorant, DA64 (Example 13); type: physicochemical; conditions: DA-64, 750 nm, 37° C., additives at conc. (1%; IDA 1 mM; Zn, Al 0.1 mM; ferrocyanide 0.01 mM; sorbitol 5%; DMSO 10%)
Description: as §2, §3, §1, §4

[5] = Screening of stabilizer for colorant, MBTH-TOOS (Example 13); type: physicochemical; conditions: MBTH-TOOS, 570 nm, 37° C., additives at conc. (1%; IDA 1 mM; Zn, Al 0.1 mM; ferrocyanide 0.01 mM; sorbitol 5%; DMSO 10%)
[6] = test sample 1% in R-1, 20 or more = excellent promoting effect

| Compound | protease reaction promoting effect (in words) [2] | AH (absorbance from primary calibrator at level 4 (9.88%)) ([2]; test sample 1% in R-1) | AL (absorbance from primary calibrator at level 2 (5.38%)) ([2]; test sample 1% in R-1) | AH − AL [2, 6] [mAbs] | quantification of hemoglobin (in words) (hemoglobin) | blank (distilled water) change in absorbance ([3]; 0 days) [Abs] | blank (distilled water) change in absorbance ([3]; 2 days) [Abs] | blank (distilled water) change in absorbance ([4]; 0 days) [Abs] | blank (distilled water) change in absorbance ([4]; 2 days) [Abs] | blank (distilled water) change in absorbance ([4]; 9 days) [Abs] | blank (distilled water) change in absorbance ([5]; 0 days) [Abs] | blank (distilled water) change in absorbance ([5]; 2 days) [Abs] | also measured |
| --- | --- | --- | --- | --- | --- | --- | --- | --- | --- | --- | --- | --- | --- |
| catalase |  |  |  |  |  |  |  |  |  |  |  |  | 500 μM hydrogen peroxide ([1]; 0 days): 0.510; Blank ([1]; 0 days): 0.057; 500 μM hydrogen peroxide ([1]; 2 days): 0.335; Blank ([1]; 2 days): 0.452; 500 μM hydrogen peroxide ([1]; 9 days): 0.304; Blank ([1]; 9 days): 1.052; effect of catalase addition on blank after preservation (in words) ([1]; Table 4): the blank after preservation significantly decreased |
| CCCCCCCCCCCCCCCCCC(=O)N(C)CCS(=O)(=O)[O-].[Na+] [SMT, sodium N-stearoyl methyl taurinate] | effects were observed | 110.2 | 86.4 | 23.8 | hemoglobin was able to be quantified |  |  |  |  |  |  |  |  |
| CCCCCCCCCCCC(=O)N(C)CCC(=O)[O-].[Na+] [Alaninate LN-30, sodium lauroyl methyl alaninate] | effects were observed | 92.3 | 65.6 | 26.7 |  |  |  |  |  |  |  |  | sensitivity of the GA measurement (protease; control serum, no dilution, with protease reaction promoter (without: 32 mAbs)): 48 mAbs; increase of reaction rate (protease; with vs without protease reaction promoter): 1.5 folds |
| CCCCCCCCCCCCOCCOCCOCCOCCOCCOCCOCCOCCOCCOCCOCC(=O)O [AKYPO-RLM100, polyoxyethylene(10)lauryl ether acetic acid] | effects were observed |  |  | 29.1 | hemoglobin was able to be quantified |  |  |  |  |  |  |  |  |
| O=C(O)CNCC(=O)O [IDA, imino-diacetic acid, reference compound] |  |  |  |  |  | 0.089 | 2.131 | −0.010 | 0.078 | 0.210 | 0.151 | 1.213 | AH (absorbance from primary calibrator at level 4 (9.88%)) ([2]; test sample 1 mM in R-1): 67.7; AH − AL ([2]; test sample 1 mM in R-1): 5.5 mAbs; AL (absorbance from primary calibrator at level 2 (5.38%)) ([2]; test sample 1 mM in R-1): 62.2 |
| TritonX-100 [reference compound] |  | 44.9 | 39.7 | 5.2 |  | 0.085 | 2.100 | −0.005 | 0.080 | 0.221 | 0.146 | 1.135 |  |
